pIC50: −log10 of the molar value.
How the values were obtained:
[1] = molecular target: T1, recombinant N-terminal MLH1 (residues 15-340) (Homo sapiens, UniProt P40692); assay: Fluorescence Polarisation Assay for MLH1; format: binding; settings: fluorescence polarisation probe displacement; 100 nM N-terminal MLH1, 5 nM probe compound
T1 construct: recombinant N-terminal MLH1 (residues 15-340)
T1 sequence (P40692 15-340): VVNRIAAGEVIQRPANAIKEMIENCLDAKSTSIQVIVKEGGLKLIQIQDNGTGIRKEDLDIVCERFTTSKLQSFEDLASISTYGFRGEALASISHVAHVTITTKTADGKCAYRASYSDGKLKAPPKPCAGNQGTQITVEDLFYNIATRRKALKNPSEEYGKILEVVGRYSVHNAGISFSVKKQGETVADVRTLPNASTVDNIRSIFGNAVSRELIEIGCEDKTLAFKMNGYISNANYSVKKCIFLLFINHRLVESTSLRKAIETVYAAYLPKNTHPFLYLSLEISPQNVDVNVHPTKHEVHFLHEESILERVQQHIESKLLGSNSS
Experimental: Fluorescence Polarisation Assay for MLH1
Test compounds, as 10 mM DMSO stocks, were dispensed into a 384-well Low Flange Black Flat Bottom Polystyrene Non-binding Surface plate (Corning®, item number 3575) using a Labcyte Echo acoustic liquid handler. Test compounds were added to wells in columns 1-22 whilst DMSO was added to wells in columns 23 and 24 in order to normalise the plate. 20 μL of a 2× solution (200 nM) of recombinant N-terminal MLH1 (residues 15-340) in assay buffer (25 mM HEPES, pH 7.5, 250 mM NaCl, 10 mM MgCl2, 0.01% Triton X-100, 5 mM dithiothreitol) was added to all wells in columns 1-23 and 20 μL assay buffer was added to all wells in column 24 using an E1-ClipTip pipette (ThermoFisher). Plates were centrifuged for 1 minute at 250×g and were incubated at room temperature for 30 minutes prior to the addition of 20 μL of 2× (10 nM) 5-((5-(4-((2-(2,4-dihydroxy-5-isopropylbenzoyl)isoindolin-5-yl)methyl)piperazin-1-yl)pentyl)carbamoyl)-2-(6-(dimethylamino)-3-(dimethyliminio)-3H-xanthen-9-yl)benzoate in assay buffer (prepared from a 1 mM DMSO stock) with an E1-ClipTip pipette (ThermoFisher). The final concentration of N-terminal MLH1 was 100 nM and the final concentration of the probe compound was 5 nM. Compound plates were centrifuged for 1 minute at 250×g for 1 minute and immediately read on a PheraStar FSX (fitted with 384-well aperture spoon and 590 675 675 FP optic module). The gain and focus were adjusted before each plate was read so that the polarisation of a no enzyme control (column 24) was equal to 35 mP. Data were normalised against the no inhibitor controls (column 23) and no enzyme controls (column 24).

[2] = molecular target: T2, recombinant N-terminal PMS2 (residues 1-365) (Homo sapiens, UniProt P54278); assay: Fluorescence Polarisation Assay for PMS2; format: binding; settings: fluorescence polarisation probe displacement; 10 nM N-terminal PMS2, 5 nM probe compound; read-out: PMS2 IC50
T2 construct: recombinant N-terminal PMS2 (residues 1-365)
T2 sequence (P54278 1-365): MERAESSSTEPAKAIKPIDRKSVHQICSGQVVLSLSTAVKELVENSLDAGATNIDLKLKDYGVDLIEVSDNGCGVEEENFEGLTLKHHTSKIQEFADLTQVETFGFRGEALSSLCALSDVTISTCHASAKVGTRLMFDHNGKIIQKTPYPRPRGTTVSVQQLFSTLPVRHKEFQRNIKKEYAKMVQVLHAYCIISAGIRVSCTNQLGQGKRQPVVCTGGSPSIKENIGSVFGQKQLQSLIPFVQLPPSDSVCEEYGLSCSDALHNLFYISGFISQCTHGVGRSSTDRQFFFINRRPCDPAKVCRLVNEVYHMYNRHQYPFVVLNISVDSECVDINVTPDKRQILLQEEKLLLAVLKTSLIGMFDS
Experimental: Fluorescence Polarisation Assay for PMS2
For single point screening, test compounds were added to wells in columns 1-22 whilst DMSO was added to wells in columns 23 and 24 in order to normalise the plate. For potency determination, serial dilutions of test compounds were added to wells in columns 3-22 and DMSO volume was normalised across the plate.
20 μL assay buffer was added to all wells in columns 1 and 24 (column 24 only for single point screening) using a MultiDrop Combi (ThermoFisher). Plates were centrifuged for 1 minute at 250×g and were incubated at room temperature for 30 minutes prior to the addition of 20 μL of 2× (20 nM) of 5-((5-(4-((2-(2,4-dihydroxy-5-isopropylbenzoyl)isoindolin-5-yl)methyl)piperazin-1-yl)pentyl)carbamoyl)-2-(6-(dimethylamino)-3-(dimethyliminio)-3H-xanthen-9-yl)benzoate (referred to hereinafter as “probe compound”) in assay buffer (prepared from a 100 μM DMSO stock) with a MultiDrop Combi (ThermoFisher). The final concentration of N-terminal PMS2 was 10 nM and the final concentration of probe compound was 5 nM.
Compound plates were centrifuged for 1 minute at 250×g for 1 minute and were incubated at room temperature for 1 hour before being read on a PheraStar FSX (fitted with 384-well aperture spoon and 540 590 590 FP optic module). The gain and focus were adjusted before each plate was read so that the polarisation of a no enzyme control (column 24) was equal to 35 mP. Data were normalised against the no inhibitor controls (column 23) and no enzyme controls (column 24).

| SMILES | pIC50 [1] | pIC50 [2] |
| --- | --- | --- |
| CC(=O)N1CCC(Nc2cccc3c2CN(C(=O)c2c(O)cc(O)cc2OCc2ccccc2)C3)C1 (stereo not drawn) [Example 36, 1-(3-((2-(2-(Benzyloxy)-4,6-dihydroxybenzoyl)isoindolin-4-yl)amino)pyrrolidin-1-yl)ethan-1-one] | > 6.00 | 5.00 to 6.00 |
| COc1ccc(COc2cc(O)cc(O)c2C(=O)N2Cc3cccc(NC4CCOC4)c3C2)cc1 (stereo not drawn) [Example 39, (2,4-Dihydroxy-6-((4-methoxybenzyl)oxy)phenyl)(4-((tetrahydrofuran-3-yl)amino)isoindolin-2-yl)methanone] | > 6.00 | 5.00 to 6.00 |
| O=C(c1c(O)cc(O)cc1OCc1ccccn1)N1Cc2cccc(NC3CCOC3)c2C1 (stereo not drawn) [Example 40, (2,4-Dihydroxy-6-(pyridin-2-ylmethoxy)phenyl)(4-((tetrahydrofuran-3-yl)amino)isoindolin-2-yl)methanone] | > 6.00 | < 5.00 |
| O=C(c1c(O)cc(O)cc1OCc1ccccc1)N1CCc2cccc(NC3COC3)c2C1 [Example 41, (2-(Benzyloxy)-4,6-dihydroxyphenyl)(8-(oxetan-3-ylamino)-3,4-dihydroisoquinolin-2(1H)-yl)methanone] | > 6.00 | 5.00 to 6.00 |
| CN1CC(Nc2cccc3c2CN(C(=O)c2c(O)cc(O)cc2OCc2ccccc2)CC3)CC1=O (stereo not drawn) [Example 42, 4-((2-(2-(Benzyloxy)-4,6-dihydroxybenzoyl)-1,2,3,4-tetrahydroisoquinolin-8-yl)amino)-1-methylpyrrolidin-2-one] | > 6.00 | > 6.00 |
| CNc1cccc2c1CN(C(=O)c1c(O)cc(O)cc1OCc1ccccc1)CC2 [Example 43, (2-(Benzyloxy)-4,6-dihydroxyphenyl)(8-(methylamino)-3,4-dihydroisoquinolin-2(1H)-yl)methanone] | > 6.00 | 5.00 to 6.00 |
| COCCNc1cccc2c1CN(C(=O)c1c(O)cc(O)cc1OCc1ccccc1)CC2 [Example 44, (2-(Benzyloxy)-4,6-dihydroxyphenyl)(8-((2-methoxyethyl)amino)-3,4-dihydroisoquinolin-2(1H)-yl)methanone] | > 6.00 | 5.00 to 6.00 |
| CC(Nc1cccc2c1CN(C(=O)c1c(O)cc(O)cc1OCc1ccccc1)C2)C1COC1 (stereo not drawn) [Example 45, (2-(Benzyloxy)-4,6-dihydroxyphenyl)(4-((1-(oxetan-3-yl)ethyl)amino)isoindolin-2-yl)methanone] | 5.00 to 6.00 | 5.00 to 6.00 |
| COc1ccc2c(c1)CCN(C(=O)c1c(O)cc(O)cc1OCc1ccccc1)C2 [Example 48, (2-Benzyloxy-4,6-dihydroxy-phenyl)-(6-methoxy-3,4-dihydro-1H-isoquinolin-2-yl)methanone] | 5.00 to 6.00 | 5.00 to 6.00 |
| COc1ccc2c(c1)CN(C(=O)c1c(O)cc(O)cc1OCc1ccccc1)CC2 [Example 49, (2-Benzyloxy-4,6-dihydroxy-phenyl)-(7-methoxy-3,4-dihydro-1H-isoquinolin-2-yl)methanone] | 5.00 to 6.00 | 5.00 to 6.00 |
| O=C(c1c(O)cc(O)cc1OCc1ccccc1)N1Cc2cccc(NC34CCC(C3)OC4)c2C1 (stereo not drawn) [Example 53, (4-((2-Oxabicyclo[2.2.1]heptan-4-yl)amino)isoindolin-2-yl)(2-(benzyloxy)-4,6-dihydroxyphenyl)methanone] | > 6.00 | 5.00 to 6.00 |
| COc1cc2c(c(NC3CCOC3)c1)CN(C(=O)c1c(O)cc(O)cc1OCc1ccccc1)CC2 (stereo not drawn) [Example 54, (2-(Benzyloxy)-4,6-dihydroxyphenyl)(6-methoxy-8-((tetrahydrofuran-3-yl)amino)-3,4-dihydroisoquinolin-2(1H)-yl)methanone] | > 6.00 | 5.00 to 6.00 |
| O=C(c1c(O)cc(O)cc1OCc1ccccn1)N1CCc2cccc(N[C@H]3CCOC3)c2C1 [Example 55, (S)-(2,4-Dihydroxy-6-(pyridin-2-ylmethoxy)phenyl)(8-((tetrahydrofuran-3-yl)amino)-3,4-dihydroisoquinolin-2(1H)-yl)methanone] | > 6.00 | 5.00 to 6.00 |
| O=C(c1c(O)cc(O)cc1OCc1ccccn1)N1CCc2cccc(N[C@@H]3CCOC3)c2C1 [Example 56, (R)-(2,4-dihydroxy-6-(pyridin-2-ylmethoxy)phenyl)(8-((tetrahydrofuran-3-yl)amino)-3,4-dihydroisoquinolin-2(1H)-yl)methanone] | > 6.00 | < 5.00 |

Other lines, results leading:

| pIC50 [1] | pIC50 [2] | SMILES |
| --- | --- | --- |
| > 6.00 | 5.00 to 6.00 | Cn1ncc(Nc2cccc3c2CN(C(=O)c2c(O)cc(O)cc2OCc2ccccc2)C3)n1 [Example 35, (2-(Benzyloxy)-4,6-dihydroxyphenyl)(4-((2-methyl-2H-1,2,3-triazol-4-yl)amino)isoindolin-2-yl)methanone] |
| > 6.00 | 5.00 to 6.00 | O=C(c1c(O)cc(O)cc1OCc1ccc(F)cc1)N1Cc2cccc(NC3CCOC3)c2C1 (stereo not drawn) [Example 37, (2-((4-Fluorobenzyl)oxy)-4,6-dihydroxyphenyl)(4-((tetrahydrofuran-3-yl)amino)isoindolin-2-yl)methanone] |
| > 6.00 | 5.00 to 6.00 | O=C(c1c(O)cc(O)cc1OCc1ccc(F)c(F)c1)N1Cc2cccc(NC3CCOC3)c2C1 (stereo not drawn) [Example 38, (2-((3,4-Difluorobenzyl)oxy)-4,6-dihydroxyphenyl)(4-((tetrahydrofuran-3-yl)amino)isoindolin-2-yl)methanone] |
| 5.00 to 6.00 | 5.00 to 6.00 | CN(C)Cc1ccc2c(c1)CCN(C(=O)c1c(O)cc(O)cc1OCc1ccccc1)C2 [Example 46, (2-Benzyloxy-4,6-dihydroxy-phenyl)-[6-[(dimethylamino)methyl]-3,4-dihydro-1H-isoquinolin-2-yl]methanone] |
| 5.00 to 6.00 | 5.00 to 6.00 | CN(C)Cc1ccc2c(c1)CN(C(=O)c1c(O)cc(O)cc1OCc1ccccc1)CC2 [Example 47, (2-Benzyloxy-4,6-dihydroxy-phenyl)-[7-[(dimethylamino)methyl]-3,4-dihydro-1H-isoquinolin-2-yl]methanone] |
| > 6.00 | 5.00 to 6.00 | CC12CC(Nc3cccc4c3CN(C(=O)c3c(O)cc(O)cc3OCc3ccccc3)C4)(CO1)C2 [Example 52, (2-(Benzyloxy)-4,6-dihydroxyphenyl)(4-((1-methyl-2-oxabicyclo[2.1.1]hexan-4-yl)amino)isoindolin-2-yl)methanone] |
| > 6.00 | < 5.00 | O=C(c1c(O)cc(O)cc1OCc1ccccn1)N1CCc2cccc(NC3COC3)c2C1 [Example 57, (2,4-Dihydroxy-6-(pyridin-2-ylmethoxy)phenyl)(8-(oxetan-3-ylamino)-3,4-dihydroisoquinolin-2(1H)-yl)methanone] |

— patent US20240293392A1, “INHIBITOR COMPOUNDS” (NeoPhore Limited, priority 2021, published 2024)
